Molecules are shown by their SMILES.

A short description of experiment [1]: KM-34 capacity to reduce DPPH radicals. The format is biochemical. As to conditions: DPPH 100 μM, 30 minutes of reaction; read-out: IC50, reduction of DPPH radicals. On the procedure:
FIG. 1. Percentage reduction of DPPH (100 μM) by KM-34 (5-400 μM) was determined by changing in the absorbance at 550 nm from a target containing only DPPH and vehicle (zero concentration of KM −34 or AA), after 30 minutes of reaction. Values are expressed as the mean ± SD (n=3). *P<0.05 with respect to the vehicle.
One of the most commonly used methods to estimate antioxidant activity is to evaluate the ability of different compounds to reduce DPPH radicals, which can be determined spectrophotometrically (Brand-Williams et al., 1995). […] Electron delocalization causes the intense violet coloration of the DPPH radical form when it is prepared in ethanol solution (Molyneux et al., 2004).
The IC 50 value obtained for KM was approximately 2.4 times lower than that obtained for ascorbic acid (AA) used as the reference compound.

Experiment [2] concerns transient occlusion of the common carotid arteries. The experiment is described as follows: Vascular dementia model (transient occlusion of common carotid arteries), Morris maze. Particulars: JM-20 4 mg/kg p.o., 1 hour after reperfusion and all days of the test; vs animals without treatment. The format is in vivo, male Swiss albino mice. As to the method: As a model of vascular dementia, the animals (male Swiss albino mice) underwent transient occlusion of the common carotid arteries for 20 minutes and cognitive impairment was evaluated through the Morris labyrinthine assay. […] As a model of permanent cortical ischemia, thermo-coagulation of the pials arteries was induced and the percentage of asymmetry was quantified.

Take `O=C1O[C@H]([C@@H](O)CO)C(O)=C1O` [AA, ascorbic acid, reference compound]: the half-maximal inhibitory concentration (IC50) in experiment [1] is 38.7 µM.
Turning to `CCOC(=O)C1=C(C)NC2=C(C=Nc3ccccc3N2)C1c1ccccc1[N+](=O)[O-]` (centres unmarked) [JM-20, 3-ethoxycarbonyl-2-methyl-4-(2-nitrophenyl)-4,11-dihydro-1H-pyrido[2,3-b][1,5]benzodiazepine], the “Escape latency time, Morris maze” value in experiment [2] is “significantly (p<0.05)”.

A word on the IC50: it is the concentration that inhibits the measured activity by half.

Values taken from patent US10722491B2, “Phenol compound and combination of same with a benzodiazepine fused to 1,4-dihydropyridine for treating diseases of the central nervous and vascular systems” (UNIVERSIDAD DE LA HABANA, priority 2016, dated 2020).
